Assay results taken from patent US8530183B2, “Zinc sensors for cellular imaging” (The Board of Regents of the University of Texas System, priority 2010, dated 2013).

Assays:
MIN6 cells = assay: Epifluorescence ZIMIR imaging of KCl-stimulated insulin/Zn2+ release; format: cell-based, mouse; details: KCl 40 mM
Description: FIGS. 6A-E. ZIMIR imaging of insulin/Zn^2+ release. (FIGS. 6A-E) KCl stimulated insulin/Zn^2+ release in MIN6 cells. Example images of MIN6 cells (FIG. 6A, DIC/Normasky) before (FIG. 6B) and after KCl (40 mM, C) or Zn^2+ addition (1 μM, D). Time courses of ZIMIR signal changes (F/F0) in two example regions of interest (ROI, indicated in D by dashed lines) along the plasma membrane.
Cell culture and ZIMIR imaging by wide field fluorescence microscopy. Details of cell culture are described below. For cell imaging, we cultured cells in 35 mm petri dishes with glass-bottoms (MatTek, Ashland, Mass.). […] To image insulin/Zn^2+ secretion, we routinely included 10 μM of EDTA in SAB to chelate the residual Zn^2+ and to reduce the baseline fluorescence. […]
Membrane ZIMIR fluorescence intensity was measured by drawing regions of interest (ROIs) along the plasma membrane, and its time course was normalized against its baseline value after background subtraction, i.e., (F-Fbkg)/(F0-Fbkg), where Fbkg is the average background fluorescence intensity of a nearby area containing no cells. […] Wide field fluorescence microscopy was carried out on inverted fluorescence microscopes as described (Guo et al., 2008).
ZIMIR imaging by wide field fluorescence microscopy. […]

pancreatic islets = assay: Confocal imaging of dye uptake and insulin/Zn2+ release in pancreatic islets; format: cell-based, mouse
Description: FIGS. 8A-C. Imaging insulin/Zn^2+ release in islets by confocal laser scanning microscopy. (FIGS. 8A-B) Confocal images of mouse islets labeled with ZIMIR (FIG. 8A) or calcein/AM (FIG. 8B). (FIG. 8C) Confocal ZIMIR imaging of insulin/Zn^2+ release in a mouse islet bathed in SAB. Images from two example layers 15 μm apart before and 10 sec post KCl (40 mM) stimulation were shown.
FIG. 11. ZIMIR rapidly labels cells of intact human islets. Representative CLSM images of a ZIMIR labeled human islet at three focal planes 20 μm apart.
Islets labeling and ZIMIR imaging by confocal laser scanning microscopy. Experiments with rodent animals were carried out according to protocols approved by the Institutional Animal Care and Use Committee of University of Texas Southwestern Medical Center. Rodent islets were isolated from Sprague-Dawley rats or C57BL/6 mice after digesting exocrine tissues of pancreas using collagenase as described below. To image insulin release in islets, the inventors labeled islets with ZIMIR (final concentration 2 μM with 0.025% Pluronic) in SAB buffer for […]. Labeled islets were then transferred to an imaging dish that had been coated with 0.5% PuraMatrix peptide hydrogel (BD Biosciences, Cat # 354250). Islets adhered to the PuraMatrix hydrogel within 5 min. They then imaged ZIMIR fluorescence by confocal laser scanning microscopy using a LSM510 imaging system (Carl Zeiss) and a 40× oil immersion objective (Dakin and Li, 2007).
Confocal imaging of ZIMIR uptake and insulin/Zn^2+ release in pancreatic islets. In addition to cultured cells, ZIMIR also rapidly and noninvasively labels cells in preparations such as dissected pancreatic islets. After loading islets with ZIMIR (2 μM) for 25 min, the inventors applied CLSM to track the distribution of ZIMIR in three dimensions (3D). […] The result confirmed that ZIMIR readily diffused through the interstitial space to reach interior cells, whereas calcein/AM was trapped by cells in the outer layer, unable to penetrate any deeper. After labeling, the inventors depolarized cells with high concentration of KCl.

CCCCCCCCCCCCN(CC(=O)O)Cc1c2oc3c(CN(CCCCCCCCCCCC)CC(=O)O)c(O)ccc3c(-c3cc(NCCN(CCc4ccccn4)Cc4ccccn4)ccc3C(=O)O)c-2ccc1=O [ZIMIR]
ZIMIR fluorescence change upon KCl stimulation (MIN6 cells): robust enhancement in ZIMIR fluorescence
distribution of dye in islets (3D, CLSM) (pancreatic islets; ZIMIR 2 μM for 25 min, mouse and human islets): taken up by cells throughout the islets, from the mantle to the core
ZIMIR fluorescence change in islets upon KCl depolarization (pancreatic islets; mouse islet, high concentration of KCl (40 mM)): robust and synchronized enhancement of ZIMIR fluorescence
